Experimental data published in patent publication US20090170804A1, “PIRFENIDONE/TOLL-LIKE RECEPTOR (TLR) AGONIST COMPOSITIONS AND METHODS FOR USING THEM TO STIMULATE PRODUCTION OF GRANULOCYTE COLONIZING STIMULATING FACTOR (G-CSF)” (priority 2005, published 2009).
Read-outs that look alike come from different tables or passages of the source.

Experiments:
[1] = tested on: Human PBMCs; experiment: LPS-mediated cytokine induction in human PBMCs (BioRad Multiplex Cytokine Platform); format: cell-based; design: TNF-α release in PBMCs (FIG. 9) / G-CSF release in PBMCs (FIG. 9): dose or concentration left out as unconfirmed; details: for IC50: PBMC, 1 h pirfenidone pretreatment, LPS, optimal expression at 8 hours
Description: Human PBMCs (10^5 cells per well) were pretreated with pirfenidone (5 mM to 5 μM) for one hour in a 96-well plate and then stimulated with LPS ([…] to 0.01 ng/ml) for 1, 2, 8, or 24 hours at 37° C. Subsequently, cells were spun and supernatants collected and assayed for protein expression using the BioRad Multiplex Cytokine Platform, which enables 17 different cytokines to be analyzed simultaneously: G-CSF, GM-CSF, IFN-γ, IL-1β, IL-2, IL-4, IL-5, IL-6, IL-7, IL-8, IL-10, IL-12 (p70), IL-13, IL-17, MCP-1, MIP-1β, and TNF-α.

[2] = tested on: Human PBMCs; experiment: p38 inhibitors: TLR-agonist-mediated TNF-α and G-CSF release from human PBMCs; format: cell-based; details: 1 h pretreatment, then LPS, Fibrin, LTA, PG or CpG for 24 hours
Text: The effect of various p38 inhibitors on LPS-mediated TNF-α and G-CSF release from human PBMCs was examined. Briefly, human PBMCs (10^5 cells per well) were pretreated with pirfenidone, a hydroxyl-pirfenidone derivative, SB202190 (commercially available p38 inhibitor), or SB203580 (commercially available p38 inhibitor) for one hour in a 96-well plate and then stimulated with lipopolysaccharide (LPS, binds TLR4), Fibrin (binds TLR4), lipoteichoic acid (LTA, binds TLR2), peptidoglycan (PG, binds TLR2), or CpG (bacterial DNA, binds TLR9) for 24 hours at 37° C. Subsequently, cells were spun and supernatants collected and assayed for G-CSF expression.
Each TLR agonist alone is set to 1 (positive control) and the subsequent release of G-CSF in the presence of p38 inhibitors is determined relative to the positive control.

[3] = in the presence of pirfenidone (lmM)

| Molecule | IC50 ([1]; human PBMCs, read-out: pirfenidone IC50 for IL-1β (LPS-mediated cytokine induction)) | IC50 ([1]; human PBMCs, read-out: pirfenidone IC50 for TNF-α (LPS-mediated cytokine induction)) | LPS-mediated release of G-CSF ([1]; human PBMCs) | LPS-mediated release of GM-CSF ([1]; human PBMCs) | LPS-mediated release of IFN-γ ([1]; human PBMCs) | LPS-mediated release of IL-1β ([1]; human PBMCs) | LPS-mediated release of IL-10 ([1]; human PBMCs) | LPS-mediated release of MCP-1 ([1]; human PBMCs) | LPS-mediated release of TNF-α ([1]; human PBMCs) | constitutive (but not LPS-mediated) expression of IL-6 ([1]; human PBMCs) | constitutive (but not LPS-mediated) expression of IL-8 ([1]; human PBMCs) | constitutive (but not LPS-mediated) expression of MIP-1β ([1]; human PBMCs) | LPS-induced expression of G-CSF augmented by [1, 3] | LPS-induced expression of IL-10 augmented by [1, 3] | TNF-α expression in PBMCs (FIG. 1) ([1]; pirfenidone 185 μg/mL and LPS 1 μg/mL) | G-CSF release in PBMCs (FIG. 9) ([1]; pirfenidone and LPS) | TNF-α release in PBMCs (FIG. 9) ([1]; pirfenidone and LPS) | TLR-induced G-CSF release (FIG. 12, fold induction relative to TLR agonist alone) [2] | induction of expression of IL-2, IL-4, IL-5, IL-7, IL-12, IL-13, or IL-17 ([1]; human PBMCs stimulated with LPS) |
| --- | --- | --- | --- | --- | --- | --- | --- | --- | --- | --- | --- | --- | --- | --- | --- | --- | --- | --- | --- |
| Cc1ccc(=O)n(-c2ccccc2)c1 [pirfenidone, 5-methyl-1-phenyl-2-(1H)-pyridone] | ~2500 µM | ~1000 µM | augmented | inhibited | inhibited | inhibited | augmented | augmented | inhibited | inhibited | inhibited | inhibited | 100% | 35% | reduced | increased | decreased | augmented |  |
| lipopolysaccharide [LPS] |  |  |  |  |  |  |  |  |  |  |  |  |  |  |  |  |  |  | did not induce |
